# Values of other authors in patent publication US20070254026A1, “SOFTGEL CAPSULES” (FORBES MEDI-TECH INC., priority 2006, published 2007).
# Tested on: benign prostate hypertrophy
# Details: Berges.2000; Coleman.2002
smiles,measurement,value
"CC[C@H](CC[C@@H](C)[C@H]1CC[C@H]2[C@@H]3CC=C4C[C@@H](O)CC[C@]4(C)[C@H]3CC[C@]12C)C(C)C [sitosterol, β-sitosterol]",effective dose reducing symptoms of benign prostate hypertrophy,20 to 60 mg per day
